Converted amounts (≈) assume the structure as drawn. Like-named read-outs stand apart in the source and are kept apart here.
Experiment: Solubility in toluene, xylene and chloroform at 25° C.
Assay type: physicochemical
Settings: organic solvent or mixture
Protocol: 1. A solubility (mg/mL) of compounds of Examples 1 to 11 and CBP, i.e., 4,4′-bis(9H-carbazol-9-yl)biphenyl, in toluene, xylene and chloroform was measured. The test temperature was 25° C.

[1] = chloroform, in chloroform, read-out: Solubility Chloroform
[2] = chloroform, in chloroform, read-out: solubility in chloroform (text summary of Table 1)
[3] = toluene, in toluene, read-out: Solubility Toluene
[4] = toluene, in toluene, read-out: solubility in toluene (text summary of Table 1)
[5] = xylene, in xylene, read-out: Solubility Xylene
[6] = xylene, in xylene, read-out: solubility in xylene (text summary of Table 1)

| SMILES | solubility [1] | solubility [2] | solubility [3] | solubility [4] | solubility [5] | solubility [6] |
| --- | --- | --- | --- | --- | --- | --- |
| c1ccc(-c2cc(-c3ccc4c(c3)-c3ccccc3C43c4ccccc4-c4ccccc43)nc(N3c4ccccc4Oc4ccc5c(c43)c3ccccc3n5-c3ccccc3)n2)cc1 [Example 4] | 430 mg/mL (≈ 526 mM) | > 300 mg/mL | 305 mg/mL (≈ 373 mM) | > 200 mg/mL | 362 mg/mL (≈ 443 mM) | > 240 mg/mL |
| CC1(C)c2ccccc2N(c2nc(-c3ccccc3)nc(-c3cccc4c3-c3ccccc3C43c4ccccc4-c4ccccc43)n2)c2ccc3c4ccccc4n(-c4ccccc4)c3c21 [Example 6] | 460 mg/mL (≈ 545 mM) | > 300 mg/mL | 350 mg/mL (≈ 415 mM) | > 200 mg/mL | 392 mg/mL (≈ 464 mM) | > 240 mg/mL |
| c1ccc(-c2nc(-c3ccc4c(c3)C3(c5ccccc5-4)c4ccccc4N(c4ccccc4)c4ccccc43)nc(-n3c4ccccc4c4cc5c6ccccc6n(-c6ccccc6)c5cc43)n2)cc1 [Example 10] | 344 mg/mL (≈ 385 mM) | > 300 mg/mL | 220 mg/mL (≈ 246 mM) | > 200 mg/mL | 284 mg/mL (≈ 318 mM) | > 240 mg/mL |
| c1ccc(-c2nc(-c3ccc4c(c3)C3(c5ccccc5Sc5ccccc53)c3ccccc3-4)nc(-n3c4ccccc4c4ccc5c6ccccc6n(-c6ccccc6)c5c43)n2)cc1 [Example 9] | 434 mg/mL (≈ 520 mM) | > 300 mg/mL | 285 mg/mL (≈ 342 mM) | > 200 mg/mL | 354 mg/mL (≈ 424 mM) | > 240 mg/mL |
| c1ccc2c(c1)c1ccccc1n2-c1ccc(-c2ccc(-n3c4ccccc4c4ccccc43)cc2)cc1 [CBP, 4,4′-bis(9H-carbazol-9-yl)biphenyl, reference compound] | 185 mg/mL (≈ 382 mM) |  | 130 mg/mL (≈ 268 mM) |  | 153 mg/mL (≈ 316 mM) |  |
| CC1(C)c2ccccc2-c2ccc3c4ccccc4n(-c4nc(-c5ccccc5)nc(-c5cccc6c5-c5ccccc5C65c6ccccc6-c6ccccc65)n4)c3c21 [Example 8] | 510 mg/mL (≈ 677 mM) | > 300 mg/mL | 400 mg/mL (≈ 531 mM) | > 200 mg/mL | 452 mg/mL (≈ 600 mM) | > 240 mg/mL |
| c1ccc(-c2nc(-c3cccc4c3-c3ccccc3C43c4ccccc4-c4ccccc43)nc(-n3c4ccccc4c4cc5c6ccccc6n(-c6ccccc6)c5cc43)n2)cc1 [Example 2] | 294 mg/mL (≈ 367 mM) | > 300 mg/mL | 205 mg/mL (≈ 256 mM) | > 200 mg/mL | 256 mg/mL (≈ 319 mM) | > 240 mg/mL |
| CC1(C)c2ccccc2N(c2nc(-c3ccccc3)nc(-c3ccc4c(c3)-c3ccccc3C43c4ccccc4-c4ccccc43)n2)c2cc3c(cc21)c1ccccc1n3-c1ccccc1 [Example 5] | 445 mg/mL (≈ 527 mM) | > 300 mg/mL | 330 mg/mL (≈ 391 mM) | > 200 mg/mL | 376 mg/mL (≈ 445 mM) | > 240 mg/mL |

Further lines, results first:

| solubility [1] | solubility [2] | solubility [3] | solubility [4] | solubility [5] | solubility [6] | SMILES |
| --- | --- | --- | --- | --- | --- | --- |
| 285 mg/mL (≈ 355 mM) | > 300 mg/mL | 200 mg/mL (≈ 249 mM) | > 200 mg/mL | 243 mg/mL (≈ 303 mM) | > 240 mg/mL | c1ccc(-c2nc(-c3cccc4c3-c3ccccc3C43c4ccccc4-c4ccccc43)nc(-n3c4ccccc4c4c5c6ccccc6n(-c6ccccc6)c5ccc43)n2)cc1 [Example 3] |
| 374 mg/mL (≈ 466 mM) | > 300 mg/mL | 268 mg/mL (≈ 334 mM) | > 200 mg/mL | 313 mg/mL (≈ 390 mM) | > 240 mg/mL | [2H]c1cc2c3ccccc3n(-c3nc(-c4ccccc4)cc(-c4ccc5c(c4)-c4ccccc4C54c5ccccc5-c5ccccc54)n3)c2c2c3ccccc3n(-c3ccccc3)c12 [Example 11] |
| 473 mg/mL (≈ 534 mM) | > 300 mg/mL | 362 mg/mL (≈ 409 mM) | > 200 mg/mL | 405 mg/mL (≈ 458 mM) | > 240 mg/mL | CC1(C)c2ccccc2N(c2ccccc2)c2cc3c(cc21)N(c1nc(-c2ccccc2)cc(-c2cccc4c2-c2ccccc2C42c4ccccc4-c4ccccc42)n1)c1ccccc1C3(C)C [Example 7] |
| 410 mg/mL (≈ 511 mM) | > 300 mg/mL | 250 mg/mL (≈ 312 mM) | > 200 mg/mL | 320 mg/mL (≈ 399 mM) | > 240 mg/mL | c1ccc(-c2nc(-c3cccc4c3-c3ccccc3C43c4ccccc4-c4ccccc43)nc(-n3c4ccccc4c4ccc5c6ccccc6n(-c6ccccc6)c5c43)n2)cc1 [Example 1] |

Reference: US11447496B2, “Nitrogen-containing fused heterocyclic ring compound and application thereof” (GUANGZHOU CHINARAY OPTOELECTRONIC MATERIALS LTD., priority 2016, dated 2022)
